Laboratory results: ChEMBL document CHEMBL3351249, “Potent cholesteryl ester transfer protein inhibitors of reduced lipophilicity: 1,1'-spiro-substituted hexahydrofuroquinoline derivatives” (J Med Chem, 2014)

Target: T1, Cholesteryl ester transfer protein (Homo sapiens, UniProt P11597)
T1 sequence (P11597 whole entry): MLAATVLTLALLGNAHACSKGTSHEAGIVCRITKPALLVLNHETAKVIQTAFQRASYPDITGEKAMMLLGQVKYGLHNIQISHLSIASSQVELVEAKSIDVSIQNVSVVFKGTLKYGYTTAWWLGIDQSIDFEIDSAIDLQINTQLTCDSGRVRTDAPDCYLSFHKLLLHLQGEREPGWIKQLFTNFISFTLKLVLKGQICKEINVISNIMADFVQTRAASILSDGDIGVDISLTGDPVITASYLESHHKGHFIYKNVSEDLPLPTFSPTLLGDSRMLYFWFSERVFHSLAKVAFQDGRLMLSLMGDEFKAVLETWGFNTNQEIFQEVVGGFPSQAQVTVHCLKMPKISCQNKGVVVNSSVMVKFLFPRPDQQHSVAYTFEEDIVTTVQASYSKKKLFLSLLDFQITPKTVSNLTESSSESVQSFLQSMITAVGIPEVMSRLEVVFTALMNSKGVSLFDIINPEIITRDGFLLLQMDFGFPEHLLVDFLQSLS
Assay: Inhibition of human recombinant CETP by fluorescence transfer assay

- IC50: 4.05 µM
SMILES: CC(C)c1nc2c(c3c1[C@@H](c1ccccc1)OC31CCCC1)[C@@H](O)CC(C)(C)C2
